Assay results from patent US20260151538A1, “DIFFERENTIATION AND REPROGRAMMING OF CHONDROCYTE” (ADA Forsyth Institute, Inc., priority 2022, published 2026).

Assays:
[1] = tested on: ATDC5 cells; test: ATDC5 micro-mass culture chondrogenesis, alcian blue staining; assay type: cell-based, mouse; details: ATDC5 cells in micro-mass culture; DHA at 0, 1, 5, 25 and 125 μM; quantified with ImageJ
From the text: To further investigate the beneficial effects of GATA3 stimulation on cartilage regeneration, the inventors examined GATA3 activators in chondrogenesis. Using the ATDC5 cell line derived from mouse teratocarcinoma (undifferentiated embryonal carcinoma that can give rise to all three germ layers), the inventors first cultured the cells in micro-mass followed by differentiation into chondrocytes. Next, the inventors testes if the addition of GATA3 activators to the micro-mass culture could promote chondrogenesis. Staining was then performed to detect chondrogenic cells, which were positive for alcian blue. Imaging and quantitative analysis was then carried out to determine the percentage of the positively stained area using ImageJ.

[2] = tested on: GATA3; details: literature reports (Attakpa 2009; Gocke 2009; Ahmad 2017); cited from earlier work

Row | SMILES | chondrocyte differentiation / chondrogenesis (percentage of alcian blue positively stained area) [1] | GATA3 expression (transcripts and proteins) [2]
1 | Cc1ccc(C)c(OCCCC(C)(C)C(=O)O)c1 [Gemfibrozil] | substantial stimulated effects on chondrogenesis | enhance GATA3 expression
2 | N#CC(=C(/N)Sc1ccccc1N)/C(C#N)=C(\N)Sc1ccccc1N [U0126] |  | enhance GATA3 expression
3 | Oc1ccc(-c2nc(-c3ccncc3)c(-c3ccc(F)cc3)[nH]2)cc1 [SB202190] | substantial stimulated effects on chondrogenesis | enhance GATA3 expression
4 | Cc1cccc(Nc2cc(Cl)nc(SCC(=O)O)n2)c1C [Pirinixic acid] | substantial stimulated effects on chondrogenesis | enhance GATA3 expression
5 | Nc1nc2c(cnn2CCc2ccccc2)c2nc(-c3ccco3)nn12 [SCH 58261] |  | enhance GATA3 expression
